Source: patent US20240285808A1, “MOLECULAR PROBES FOR IN VIVO DETECTION OF ALDEHYDES” (The General Hospital Corporation, priority 2021, published 2024)

Tests used:
[1] = Affinity measurements of Gd^3+ complex with butyraldehyde (HPLC-ICP-MS); format: physicochemical
Description: FIG. 43A. […] FIG. 43B. Affinity measurements of Gd^3+ complex with butyraldehyde. Concentration-dependent binding of the probes to butyraldehyde as determined by HPLC-ICP-MS (pH 7.4 in PBS, 12 h).

BSA-ALD [2] = molecular target: T1, BSA-ALD (Bos taurus, UniProt P02769); assay: On/off rate with oxidized BSA-ALD; format: binding, bovine; details: for fold higher initial on rate / reactivity with BSA-Ald compared to Gd-CHyd: BSA-Ald 10 mg/mL in PBS
T1 construct: made in house; host or cells: no expression host: BSA oxidised chemically with sodium ascorbate, ferric chloride and H2O2, then desalted on PD-10
T1 sequence (P02769 25-607): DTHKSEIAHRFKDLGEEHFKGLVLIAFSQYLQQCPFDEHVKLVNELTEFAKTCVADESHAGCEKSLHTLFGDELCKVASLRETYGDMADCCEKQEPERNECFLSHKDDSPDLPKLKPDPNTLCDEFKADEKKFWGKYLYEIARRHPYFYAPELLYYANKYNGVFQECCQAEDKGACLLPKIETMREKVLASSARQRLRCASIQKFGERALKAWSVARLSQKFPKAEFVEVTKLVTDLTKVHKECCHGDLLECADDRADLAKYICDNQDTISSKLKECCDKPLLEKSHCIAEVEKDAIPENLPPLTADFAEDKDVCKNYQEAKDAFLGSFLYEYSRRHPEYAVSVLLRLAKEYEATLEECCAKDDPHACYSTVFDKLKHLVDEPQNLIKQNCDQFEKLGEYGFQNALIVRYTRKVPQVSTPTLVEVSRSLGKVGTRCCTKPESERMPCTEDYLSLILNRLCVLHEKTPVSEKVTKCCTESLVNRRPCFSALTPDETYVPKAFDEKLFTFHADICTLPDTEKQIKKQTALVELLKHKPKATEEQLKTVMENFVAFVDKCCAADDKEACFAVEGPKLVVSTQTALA
Description: On Off Rate with Oxidized BSA-ALD:
BSA-ALD (10 mg/mL) was incubated with 200 μM corresponding Gd or Mn complex at 37° C. in pH 7.4 PBS), with a total volume of 300 μL. The dynamic longitudinal (T1) relaxation time were measured using a Bruker mq60 Minispec at 1.41 T and 37° C. After 24 hours, protein-bound and protein-free solutions were separated by ultrafiltration. Then 200 μL PBS was added to the residue to dissolve the protein bound species. The change of longitudinal (T1) relaxation time was then measured in Bruker mq60 Minispec at 1.41 T and 37° C.

BSA-ALD [3] = molecular target: T1, BSA-ALD; assay: Binding yield measurements of Gd^3+ complex with BSA^Ald (ultrafiltration, ICP-MS); design: species or system bovine; details: pH 7.4, PBS, 37° C., 12 h, ultrafiltration 5,000 Da cut-off
Description: FIG. 48. […] Binding concentration of the probes to BSA^Ald (pH 7.4, PBS, 37° C., 12 h) as determined by ICP-MS following an ultrafiltration (5,000 Da cut-off) to separate the protein-bound probe from the unbound probe. Slope gives the binding yield.
Alternatively, preparation of BSA^Ald and binding of Gd^3+ probe to protein was carried out according to modified procedures. To a solution of bovine serum albumin (BSA) (100 mg) dissolved in phosphate buffered saline (4 mL, pH 7.4, 0.25 mM) was added sodium ascorbate (20 mg), ferric chloride (120 μL, 10 mM) and 20 μL H2O2 (30% w). The reaction was stirred at 37° C. for 24 h, and sodium ascorbate (20 mg) was added repeatedly every 8 h. After 24 h, the protein was purified using PD-10 Sephadex G25 desalting columns (GE Healthcare), eluted with PBS. Protein concentration was assessed using the ‘Micro BCA Protein Assay Kit’ (Thermo Scientific, 23235). Protein carbonyl concentration was determined by ‘Protein Carbonyl Content Assay Kit’ (Sigma-Aldrich, MAK094-1KT). […] The protein solutions were kept at a concentration of 20 mg/mL for further use.

[4] = system: ECM proteins from fibrotic rat liver; assay: Relaxivity measurements in ECM; format: binding; details: for relaxivity in ECM: PBS, pH 7.4, 2 h, 37° C., 1.41T; for relaxivity in ECM with 100-fold excess of hydrazine: aldehydes blocked with N2H4
Description: Liver fibrosis was induced in male Sprague Dawley rats by ligation of the common bile duct (CD®, Charles River Labs, Wilmington, MA). Ten days after common bile duct ligation, the fibrotic liver was harvested and sequential extractions were performed using the CNMCS (Cytosol/Nucleus/Membrane/Cytoskeleton) Compartmental Protein Extraction kit (Cytomol, Union City, CA) according to manufacturer's instructions. In brief, frozen tissues (150-200 mg) were homogenized and with solvents provided in the kit to sequentially to remove: cytosolic proteins, nuclear proteins, membrane proteins, and cytoskeletal proteins, leaving a final insoluble fraction enriched for ECM proteins.
Relaxivity Measurements in ECM
The enriched ECM proteins from 800 mg of fibrotic rat liver were suspended in 1 ml PBS. The ECM protein concentration was about 10% (5 mg in a 50 μL aliquot determined by weight after lyophilization). An aliquot of the solution (50 μL) was treated for 2 h at 37° C. with the corresponding molecular probe at a range of concentrations (0.01-0.1 mM) and then longitudinal (T1) relaxation measurements was recorded using a Bruker mq60 Minispec at 1.41 T and 37° C. For the blocking experiment with N2H4, a 100 fold-excess of N2H4 referred to the concentration of molecular probe was added to the solution before the incubation. Longitudinal (T1) relaxation times were measured via an inversion recovery experiment using 10 inversions of duration ranging between 0.05×T1 and 10×T1. Relaxivity (r1) was determined from the slope of a plot of 1/T1 vs metal concentration for 4 concentrations.

[5] = Elimination and retention of gadolinium in normal mice; format: in vivo, mouse; details: for route of elimination (dynamic whole-body MRI): 100 μmol/kg i.v.; for Gadolinium content, Sum, % ID per Organ / Gadolinium content, Bone, % ID per Gram / Gadolinium content, Bone, % ID per Organ / Gadolinium content, Brain, % ID per Gram / Gadolinium content, Brain, % ID per Organ / Gadolinium content, Heart, % ID per Gram / Gadolinium content, Heart, % ID per Organ / Gadolinium content, Kidneys, % ID per Gram / Gadolinium content, Kidneys, % ID per Organ / Gadolinium content, Liver, % ID per Gram / Gadolinium content, Liver, % ID per Organ / Gadolinium content, Lung, % ID per Gram / Gadolinium content, Lung, % ID per Organ / Gadolinium content, Muscle, % ID per Gram / Gadolinium content, Muscle, % ID per Organ / Gadolinium content, Serum, % ID per Gram / Gadolinium content, Serum, % ID per Organ / Gadolinium content, Spleen, % ID per Gram / Gadolinium content, Spleen, % ID per Organ / Gadolinium content, Stomach, % ID per Gram / Gadolinium content, Stomach, % ID per Organ: 24 h after injection, 100 μmol/kg; for Gadolinium content, Bone, % ID per Gram / Gadolinium content, Bone, % ID per Organ / Gadolinium content, Brain, % ID per Gram / Gadolinium content, Brain, % ID per Organ / Gadolinium content, Heart, % ID per Gram / Gadolinium content, Heart, % ID per Organ / Gadolinium content, Kidneys, % ID per Gram / Gadolinium content, Kidneys, % ID per Organ / Gadolinium content, Liver, % ID per Gram / Gadolinium content, Liver, % ID per Organ / Gadolinium content, Lung, % ID per Gram / Gadolinium content, Lung, % ID per Organ / Gadolinium content, Muscle, % ID per Gram / Gadolinium content, Muscle, % ID per Organ / Gadolinium content, Serum, % ID per Gram / Gadolinium content, Serum, % ID per Organ / Gadolinium content, Spleen, % ID per Gram / Gadolinium content, Spleen, % ID per Organ / Gadolinium content, Stomach, % ID per Gram / Gadolinium content, Stomach, % ID per Organ: n = 4
Description: FIG. 55. […] The liver enhances slightly with first-blood pass but the signal rapidly returns to baseline after 20 min.
At 24 h post-injection (p.i.), >99% of the injected dose of gadolinium was eliminated from the body (Table B).

PDAC6 xenograft tumor = assay: MR imaging of PDAC6 tumor xenograft model; format: in vivo, mouse; details: 60 min post injection
Description: Male NU(NCr)-Foxn1nu nude mice at 6-8 weeks of age were provided by Charles River Labs, Wilmington, MA. A total of 1×10^7 patient derived metastatic pancreatic cancer cells (PDAC6) were injected into the subcutaneous space of the right lower back of the mice (n=4 per group). Mice were imaged with Mn-17 (100 μmol/kg) 4 weeks after implanting the tumor for pretreatment imaging, and another group of mice were imaged 3-days post treatment with FOLFIRINOX (Folinate 50 mg/kg, Oxaliplaton 2.5 mg/kg, Irinotecan 25 mg/kg, Fluorouracil 25 mg/kg).
For PDAC6 xenograft tumor imaging, images were acquired with following sequences and parameters: 3D T1 weighted FLASH (TR/TE/FA=14 ms/[…]/30°, 0.4 mm isotropic spatial resolution, field of view (FOV) 35 mm×35 mm, two average, acquisition time=4.3 min) images were acquired prior to and dynamically post injection of contrast agent; 3D RARE (RARE, TR/TE/FA=[…]/57 ms/180°, 0.3 mm isotropic spatial resolution, field of view (FOV) 35 mm×60 mm, one average, acquisition time=8.1 min) image was also acquired.
For tumor imaging analysis, RARE image and first FLASH image post-contrast were used to define volumetric region of interest (ROIs) in the tumor that excluded necrosis region. ΔCNR was calculated by eq 22.

[6] = 3-days post treatment (FOLFIRINOX)

Compound: NN1CCN(C(=O)CCC(C(=O)[O-])N2CCN(CC(=O)[O-])CCN(CC(=O)[O-])CCN(C(CCC(=O)N3CCN(N)CC3)C(=O)[O-])CC2)CC1.[Gd+3] (stereo not drawn) [Gd-9, cis-1,4-Gd-(CHyd)2]
- fold improved affinity over Gd-11 and Gd-CHyd [1]: 2 fold
- faster on-rate than monobinder Gd-CHyd (BSA-ALD [2]): 600%
- fold slower off-rate than Gd-CHyd (BSA-ALD [2]): 1.5 fold
- slower off-rate than monobinder Gd-CHyd (BSA-ALD [2]): 50%
- fold higher initial on rate / reactivity with BSA-Ald compared to Gd-CHyd (BSA-ALD [2]): 6 fold
- equilibrium binding to BSA^Ald (binding yield) (BSA-ALD [3]): 39.2%
- relaxivity in ECM [4]: 7.8 mM⁻¹ s⁻¹
- relaxivity in ECM with 100-fold excess of hydrazine [4]: 6.6 mM⁻¹ s⁻¹
- route of elimination (dynamic whole-body MRI) [5]: eliminated exclusively via the kidneys into the bladder
- Gadolinium content, Sum, % ID per Organ [5]: 0.625 % ID per Organ
- Gadolinium content, Bone, % ID per Gram [5]: 0.0144 ± 0.0125 % ID per Gram
- Gadolinium content, Bone, % ID per Organ [5]: 0.0455 ± 0.0174 % ID per Organ
- Gadolinium content, Brain, % ID per Gram [5]: 0.00336 ± 0.00277 % ID per Gram
- Gadolinium content, Brain, % ID per Organ [5]: 0.0013 ± 0.00125 % ID per Organ
- Gadolinium content, Heart, % ID per Gram [5]: 0.0788 ± 0.0151 % ID per Gram
- Gadolinium content, Heart, % ID per Organ [5]: 0.00708 ± 0.000802 % ID per Organ
- Gadolinium content, Kidneys, % ID per Gram [5]: 1.33 ± 0.152 % ID per Gram
- Gadolinium content, Kidneys, % ID per Organ [5]: 0.377 ± 0.0103 % ID per Organ
- Gadolinium content, Liver, % ID per Gram [5]: 0.0686 ± 0.0102 % ID per Gram
- Gadolinium content, Liver, % ID per Organ [5]: 0.0341 ± 0.0250 % ID per Organ
- Gadolinium content, Lung, % ID per Gram [5]: 0.166 ± 0.100 % ID per Gram
- Gadolinium content, Lung, % ID per Organ [5]: 0.0289 ± 0.00394 % ID per Organ
- Gadolinium content, Muscle, % ID per Gram [5]: 0.0132 ± 0.00294 % ID per Gram
- Gadolinium content, Muscle, % ID per Organ [5]: 0.105 ± 0.0225 % ID per Organ
- Gadolinium content, Serum, % ID per Gram [5]: 0.00138 ± 0.000861 % ID per Gram
- Gadolinium content, Serum, % ID per Organ [5]: 0.00376 ± 0.00113 % ID per Organ
- Gadolinium content, Spleen, % ID per Gram [5]: 0.140 ± 0.0558 % ID per Gram
- Gadolinium content, Spleen, % ID per Organ [5]: 0.00618 ± 0.000767 % ID per Organ
- Gadolinium content, Stomach, % ID per Gram [5]: 0.114 ± 0.0288 % ID per Gram
- Gadolinium content, Stomach, % ID per Organ [5]: 0.0157 ± 0.00274 % ID per Organ

Compound: NN1CCN(C(=O)CCC(C(=O)[O-])N2CCN(CC(=O)[O-])CCN(C(CCC(=O)N3CCN(N)CC3)C(=O)[O-])CCN(CC(=O)[O-])CC2)CC1.[Gd+3] (stereo not drawn) [Gd-10, trans-1,7-Gd-(CHyd)2]
- fold improved affinity over Gd-11 and Gd-CHyd [1]: 2 fold
- fold higher initial on rate / reactivity with BSA-Ald compared to Gd-CHyd (BSA-ALD [2]): 3 fold
- equilibrium binding to BSA^Ald (binding yield) (BSA-ALD [3]): 28.1%
- relaxivity in ECM [4]: 7.2 mM⁻¹ s⁻¹
- relaxivity in ECM with 100-fold excess of hydrazine [4]: 6.7 mM⁻¹ s⁻¹
- route of elimination (dynamic whole-body MRI) [5]: eliminated exclusively via the kidneys into the bladder
- Gadolinium content, Sum, % ID per Organ [5]: 0.584 % ID per Organ
- Gadolinium content, Bone, % ID per Gram [5]: 0.0180 ± 0.00486 % ID per Gram
- Gadolinium content, Bone, % ID per Organ [5]: 0.0469 ± 0.0126 % ID per Organ
- Gadolinium content, Brain, % ID per Gram [5]: 0.00206 ± 0.000288 % ID per Gram
- Gadolinium content, Brain, % ID per Organ [5]: 0.000776 ± 0.000169 % ID per Organ
- Gadolinium content, Heart, % ID per Gram [5]: 0.0219 ± 0.00212 % ID per Gram
- Gadolinium content, Heart, % ID per Organ [5]: 0.00203 ± 0.000132 % ID per Organ
- Gadolinium content, Kidneys, % ID per Gram [5]: 1.45 ± 0.262 % ID per Gram
- Gadolinium content, Kidneys, % ID per Organ [5]: 0.365 ± 0.0315 % ID per Organ
- Gadolinium content, Liver, % ID per Gram [5]: 0.105 ± 0.00715 % ID per Gram
- Gadolinium content, Liver, % ID per Organ [5]: 0.0572 ± 0.0426 % ID per Organ
- Gadolinium content, Lung, % ID per Gram [5]: 0.157 ± 0.00422 % ID per Gram
- Gadolinium content, Lung, % ID per Organ [5]: 0.0197 ± 0.00107 % ID per Organ
- Gadolinium content, Muscle, % ID per Gram [5]: 0.00886 ± 0.000914 % ID per Gram
- Gadolinium content, Muscle, % ID per Organ [5]: 0.0709 ± 0.0073 % ID per Organ
- Gadolinium content, Serum, % ID per Gram [5]: 0.00169 ± 0.000259 % ID per Gram
- Gadolinium content, Serum, % ID per Organ [5]: 0.00398 ± 0.000175 % ID per Organ
- Gadolinium content, Spleen, % ID per Gram [5]: 0.165 ± 0.0817 % ID per Gram
- Gadolinium content, Spleen, % ID per Organ [5]: 0.0086 ± 0.00085 % ID per Organ
- Gadolinium content, Stomach, % ID per Gram [5]: 0.0414 ± 0.02775 % ID per Gram
- Gadolinium content, Stomach, % ID per Organ [5]: 0.00869 ± 0.00207 % ID per Organ

Compound: NNCC(=O)NCCCN1CCN(CC(=O)[O-])Cc2cccc(n2)CN(CC(=O)[O-])CC1.[Mn+2] [Mn-17]
- ΔCNR of PDAC6 xenograft tumor (PDAC6 xenograft tumor; [6]): 6.4 ± 1.2
- ΔCNR of PDAC6 xenograft tumor (PDAC6 xenograft tumor; Pre-treatment): 4.6 ± 1.0

Compound: CN(C)C(CCC(=O)NCCCN1CCN(CC(=O)[O-])Cc2cccc(n2)CN(CC(=O)[O-])CC1)C(=O)O.[Mn+2] (stereo not shown) [Mn-18]
- ΔCNR of PDAC6 xenograft tumor (PDAC6 xenograft tumor; [6]): 0.4 ± 0.3
- ΔCNR of PDAC6 xenograft tumor (PDAC6 xenograft tumor; Pre-treatment): 0.4 ± 0.3
